In patent US10413541B2, “Oxabicycloheptanes and oxabicycloheptenes for the treatment of depressive and stress disorders” (LIXTE BIOTECHNOLOGY, INC., priority 2015, dated 2019):

Key:
C57Bl/6J mice [1] = assay: Re-exposure to the context test (freezing) after FsE; type: in vivo; details: LB100 ip 6-8 h after FsE; one day after FsE
Description: (§1) The inescapable shock procedure was previously described in Stamatakis and Stuber 2012. Briefly, we placed mice into standard mouse behavioral chambers (Imetronics) equipped with a metal grid floor. We let them to habituate at the new environment for 5 m. In a 20 m session animals received either 19 or 0 unpredictable foot shocks (1 mA, 500 ms) with an interstimulus interval of 30, 60 or 90 s. We anesthetized mice for patch-clamp electrophysiology 1 h, 24 h, 7 d, 14 d or 30 d after the session ended.
(§2) For LB treatment experiments, mice were injected with LB (1.5 mg/Kg i.p.) or saline 6-8 hours after the FsE. The effects of the treatment on the LHb excitability and GABAB-GIRKs currents as well as the behavioural assay were assessed at day 1 or 7. For both electrophysiology and behaviour once treated the animal were housed in groups of 4-6 and let undisturbed until the day of the test.
For this experiment mice were re-exposed 24 h after to the chamber where they received (or not) shocks for a total duration of 5 m. […] The behavior was scored according to a 5-sec instantaneous time-sampling procedure every 25 sec (Fanselow and Bolles 1979). The observer scored the animal as freezing, scanning or active at that instant and then proceeded to the next chamber. […] Thus each animal was scored […], yielding 10 observations for each mouse for total 5 minutes session. […]

GIRK channels = assay: GTPγS-induced Ba2+-sensitive outward current (I-GTPγS) in LHb neurons of brain slices; type: cell-based, mice; details: LB100 in the bath; for Ba2+ sensitive I-GTPγS current: GTPγS 100 μM internal
Description: Animals were anesthetized with Ketamine/Xylazine (50 mg/10 mg Kg-1 i.p.; Sigma-Aldrich, France). The preparation of LHb-containing brain slices was done in bubbled ice-cold 95% O2/5% CO2-equilibrated solution containing (in mM): cholineCl 110; glucose 25; NaHCO3 25; MgCl2 7; ascorbic acid 11.6; Na+-pyruvate 3.1; KCl 2.5; NaH2PO4 1.25; CaCl2 0.5. Sagittal slices (250 μm) were stored at room temperature in 95% O2/5% CO2-equilibrated artificial cerebrospinal fluid (ACSF) containing (in mM): NaCl 124; NaHCO3 26.2; glucose 11; KCl 2.5; CaCl2 2.5; MgCl2 1.3; NaH2PO4 1. Recordings (flow rate of 2.5 ml/min) were made under an Olympus-BX51 microscope (Olympus, France) at 32° C. Currents were amplified, filtered at 5 kHz and digitized at 20 kHz. Access resistance was monitored by a step of −4 mV (0.1 Hz). Experiments were discarded if the access resistance increased more than 20%.
(§3) Cell-attached recordings in ACSF were performed in GΩ seal with a Vc=0 and Hc=0. Whole-cell voltage clamp recordings were achieved to measure GABAB-GIR currents in presence of Bicuculine (10 μM), NBQX (20 μM) and AP5 (50 μM). […] GABAB-GIRK currents were confirmed by antagonism with either 10 μM of CGP54626, a specific GABAB antagonist or 1 mM Ba^2, a selective inhibitor of inward rectifiers. For the GTPγS experiment, 100 μM of GTPγS was added to the internal solution in place of Na3GTP.

PP2A = PP2A (Homo sapiens, UniProt P67775); details: cited from earlier work
PP2A, sequence (P67775 whole entry): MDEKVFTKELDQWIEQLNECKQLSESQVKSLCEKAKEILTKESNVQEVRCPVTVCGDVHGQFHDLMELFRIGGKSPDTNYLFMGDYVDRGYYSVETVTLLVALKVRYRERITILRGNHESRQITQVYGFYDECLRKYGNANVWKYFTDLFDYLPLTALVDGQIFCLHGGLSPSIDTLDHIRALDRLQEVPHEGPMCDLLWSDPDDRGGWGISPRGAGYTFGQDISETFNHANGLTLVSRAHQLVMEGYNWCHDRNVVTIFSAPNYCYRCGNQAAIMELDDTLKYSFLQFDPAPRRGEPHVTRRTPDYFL
PP2A, sequence (P30153 whole entry partner): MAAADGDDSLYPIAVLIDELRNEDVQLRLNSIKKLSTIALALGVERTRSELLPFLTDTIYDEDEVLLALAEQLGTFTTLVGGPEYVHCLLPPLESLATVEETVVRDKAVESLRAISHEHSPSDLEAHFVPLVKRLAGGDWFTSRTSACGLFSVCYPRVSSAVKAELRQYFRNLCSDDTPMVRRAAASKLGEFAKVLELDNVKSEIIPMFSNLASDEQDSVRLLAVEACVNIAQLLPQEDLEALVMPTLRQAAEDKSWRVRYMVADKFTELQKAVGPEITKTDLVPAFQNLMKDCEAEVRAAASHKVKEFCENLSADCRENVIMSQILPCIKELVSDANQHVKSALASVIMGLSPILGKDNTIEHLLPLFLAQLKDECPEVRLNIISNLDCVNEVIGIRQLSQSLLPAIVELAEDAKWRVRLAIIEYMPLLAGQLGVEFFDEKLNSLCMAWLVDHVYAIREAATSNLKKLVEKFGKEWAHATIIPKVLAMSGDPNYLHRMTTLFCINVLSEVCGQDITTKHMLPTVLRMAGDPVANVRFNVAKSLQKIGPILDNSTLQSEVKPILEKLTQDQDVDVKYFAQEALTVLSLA

LHb neurons = assay: In vivo LB100 treatment after FsE, LHb neuronal excitability (input-output curve) in slices; parameters: species or system mice; details: LB100 1.5 mg/kg ip 6-8 h after FsE
Description: as §1
For the Okadaic acid (OA) and the CaMKII inhibitor KN93 experiments, respectively 100 nM of OA or 10 μM of KN93 were added in the internal solution. For the PP2A inhibitor LB100 experiments, LB100 (0.1 μM) was applied in the bath. Miniature excitatory postsynaptic currents (mEPSCs) were recorded in voltage-clamp mode at −60 mV in presence of bicuculine (10 μM) and TTX (1 μM). Miniature inhibitory postsynaptic currents (mIPSCs) were recorded (−60 mV) in presence of NBQX (20 μM) and TTX (1 μM). EPSCs and IPSCs were evoked through an ACSF filled monopolar glass electrode placed 200 μm from the recording site in the stria medullaris. AMPA:NMDA ratios of evoked-EPSC were obtained by AMPA-EPSC −60 mV/NMDA-EPSCs at +40 mV. Rectification Index (RI) was computed by […]-60/AMPA-EPSC+40. For the experiments in which high-frequency stimulation trains were used to determine presynaptic release probability, QX314 (5 mM) was included in the internal solution to prevent the generation of sodium spikes. Current-clamp experiments, were performed by a series of current steps (negative to positive) injected to induce action potentials (5-10 pA injection current per step, 800 ms).
as §2

[2] = tested on: GABAB-GIRK currents in LHb neurons; assay: In vivo LB100 treatment after foot-shock exposure (FsE), I-baclofen recorded in LHb slices; parameters: species or system mice; details: for FsE-induced decrease in I-baclofen (CTRL vs FsE): 7 days after FsE; for FsE-induced I-baclofen attenuation (CTRL vs FsE): one day after FsE
Description: as §1, §3, §2

C57Bl/6J mice [3] = assay: Forced swim test after FsE; type: in vivo; details: for FsE-driven impairment in the forced swim test (depressive-like phenotype): LB100 ip 6-8 h after FsE, 7 days after FsE
Description: as §1, §2
Forced swim test was conducted under normal light condition as previously described (Meye, Valentinova, Lecca et al 2015). Mice were placed in a cylinder of water (temperature 23-25° C.; 14 cm in diameter, 27 cm in height for mice) for six min. The depth of water was set to prevent animals from touching the bottom with their hind limbs. Animal behavior was videotracked from the top (Viewpoint, France). The latency to the first immobility event and the immobility time of each animal spent during the test was counted online by two independent observer blind of the animal treatments. Immobility was defined as floating or remaining motionless, which means absence of all movement except motions required to maintain the head above the water.

[4] = LB100 1.5 mg/kg ip 6-8 h after FsE, 1.5 mg/kg
[5] = LB100 1.5 mg/kg ip 6-8 h after FsE, listed as LB-100, 1.5 mg/kg
[6] = LB-100 ip 6-8 h after FsE, FST 7 days after FsE

## CN1CCN(C(=O)C2C(C(=O)O)[C@H]3CC[C@@H]2O3)CC1 (stereo partly drawn) [LB100]
C57Bl/6J mice [1]
  Freezing score in the re-exposure to the context test: did not affect
GIRK channels
  Ba2+ sensitive I-GTPγS in FsE animals vs CTRL: restored
GIRK channels; CTRL mice
  Ba2+ sensitive I-GTPγS current: 94.27±13.29 pA
GIRK channels; FsE mice
  Ba2+ sensitive I-GTPγS current: 110.6±20.79 pA
GIRK channels; listed as LB-100
  Ba2+ sensitive I-GTPγS in FsE animals vs CTRL: comparable to the control group
PP2A; 1.5 mg/Kg (Lu et al., 2009b)
  Duration of inhibition of PP2A activity: about 12 hours
  Time of peak of PP2A-inhibiting activity: ~8 h
PP2A; in vitro in human cancer cells and in xenografts of human tumor cells in mice when given parenterally
  PP2A inhibition: inhibitor of PP2A
LHb neurons; 7 days after, 1.5 mg/kg
  LHb neuronal excitability, input-output curve CTRL vs FsE: able to abolish the increase in excitability
LHb neurons; 7 days after, listed as LB-100, 1.5 mg/kg
  LHb neuronal excitability, input-output curve CTRL vs FsE: normalized
LHb neurons; one day after, 1.5 mg/kg
  LHb neuronal excitability, input-output curve CTRL vs FsE: did not show any difference
LHb neurons; one day after, listed as LB-100, 1.5 mg/kg
  LHb neuronal excitability, input-output curve CTRL vs FsE: normalized
[2]; LB100 1.5 mg/kg ip 6-8 h after FsE protocol, recorded one day after, CTRL mice
  I-baclofen current: 93.88±18.37 pA
[2]; [4]
  FsE-induced decrease in I-baclofen (CTRL vs FsE): able to revert
  FsE-induced I-baclofen attenuation (CTRL vs FsE): not present
[2]; [5]
  FsE-induced decrease in I-baclofen (CTRL vs FsE): comparable
  FsE-induced I-baclofen attenuation (CTRL vs FsE): comparable
[2]; LB100 1.5 mg/kg ip 6-8 h after FsE, recorded one day after, FsE mice
  I-baclofen current: 97.00±18.05 pA
[2]; single injection of LB100 6-8 hours after the shock protocol, recorded 7 days later, CTRL mice
  I-baclofen current: 95.54±30.00 pA
[2]; single injection of LB100 6-8 hours after the shock, recorded 7 days later, FsE mice
  I-baclofen current: 92.97±14.84 pA
C57Bl/6J mice [3]
  FsE-driven impairment in the forced swim test (depressive-like phenotype): sufficient to rescue the impairment
C57Bl/6J mice [3]; listed as LB-100
  FsE-driven impairment in the forced swim test (depressive-like phenotype): behavioral normalization
C57Bl/6J mice [3]; [6]
  Latency to the first immobility, control vs FsE group: comparable
  Total immobility, control vs FsE group: comparable
